Molecular target: T1, CDK2 (Homo sapiens, UniProt P24941)
T1 construct: High-Throughput Measurement of Cellular Endogenous CDK2; endogenous in cells; host or cells: OVCAR3
Assay: Inhibition of CDK2: phospho-Rb (S807/811) HTRF measurement in OVCAR3 cells, 24 h
Assay type: cell-based
Settings: 24 h compound treatment, read-out: pRB_OVCAR3_24h
Outline: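 IC50 came from a four-parameter fit of DMSO-normalized TR-FRET ratios (665/620 nm) reporting phospho-Rb S807/811. Lysates were taken from OVCAR3 cultures treated 24 h with compound (0.3 to 10,000 nM) and incubated 4 h at room temperature with the antibody pair.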

SMILES | IC50 [nM]
O=C1CCN(c2cnc3c(C4CCN(CC5CCN(c6cccc(S(=O)(=O)N7CCC(Nc8ncc(Cl)cn8)CC7)c6)CC5)CC4)cccn23)C(=O)N1 [Example 213, 1-(8-(1-((1-(3-((4-((5-chloropyrimidin-2-yl)amino)piperidin-1-yl)sulfonyl)phenyl)piperidin-4-yl)methyl)piperidin-4-yl)imidazo[1,2-a]pyridin-3-yl)dihydropyrimidine-2,4(1H,3H)-dione] | 100 to 500
Cn1nc(N2CCC(=O)NC2=O)c2ccc(C3CCN(CC4CCN(S(=O)(=O)N5CCC(Nc6ncc(C(F)(F)F)cn6)CC5)CC4)CC3)cc21 [Example 15, 1-(1-methyl-6-(1-((1-((4-((5-(trifluoro-methyl)pyrimidin-2-yl)amino)piperidin-1-yl)sulfonyl)piperidin-4-yl)methyl)piperidin-4-yl)-1H-indazol-3-yl)dihydropyrimidine-2,4(1H,3H)-dione] | 500 to 2500
Cn1nc(N2CCC(=O)NC2=O)c2ccc(C3CCN(Cc4cccc(C#Cc5cccc(S(=O)(=O)N6CCC(Nc7ncc(C(F)(F)F)cn7)CC6)c5)c4)CC3)cc21 [Example 233] | 100 to 500
Cn1nc(N2CCC(=O)NC2=O)c2ccc(C3CCN(CCOc4cccc(S(=O)(=O)N5CCC(Nc6ncc(Cl)cn6)CC5)c4)CC3)cc21 [Example 124, 1-(6-(1-(2-(3-((4-((5-chloropyrimidin-2-yl)amino)piperidin-1-yl)sulfonyl)phenoxy)-ethyl)piperidin-4-yl)-1-methyl-1H-indazol-3-yl)dihydropyrimidine-2,4(1H,3H)-dione] | 1 to 100

Now from value to compound:

IC50 [nM] | SMILES
500 to 2500 | CCOC(=O)C1(CN2CCC(c3ccc4c(N5CCC(=O)NC5=O)nn(C)c4c3)CC2)CCN(c2cccc(S(=O)(=O)N3CCC(Nc4ncc(Cl)cn4)CC3)c2)CC1 [Example 141, ethyl 1-(3-((4-((5-chloropyrimidin-2-yl)amino)piperidin-1-yl)sulfonyl)phenyl)-4-((4-(3-(2,4-dioxotetrahydropyrimidin-1(2H)-yl)-1-methyl-1H-indazol-6-yl)piperidin-1-yl)methyl)piperidine-4-carboxylate]
100 to 500 | O=C1CCC(Nc2ccc(N3CCN(CC4CCN(c5cccc(S(=O)(=O)N6CCC(Nc7ncc(C(F)(F)F)cn7)CC6)c5)CC4)CC3)cc2)C(=O)N1 (stereo not drawn) [Example 133, 3-((4-(4-((1-(3-((4-((5-(trifluoromethyl)-pyrimidin-2-yl)amino)piperidin-1-yl)sulfonyl)phenyl)piperidin-4-yl)methyl)piperazin-1-yl)phenyl)amino)-piperidine-2,6-dione]
100 to 500 | O=C1CCC(N2Cc3cc(C4CN(Cc5cccc(S(=O)(=O)N6CCC(Nc7ncc(C(F)(F)F)cn7)CC6)c5)C4)ccc3C2=O)C(=O)N1 (stereo not drawn) [Example 48, 3-(1-oxo-5-(1-(3-((4-((5-(trifluoromethyl)-pyrimidin-2-yl)amino)piperidin-1-yl)sulfonyl)benzyl)azetidin-3-yl)isoindolin-2-yl)piperidine-2,6-dione]
100 to 500 | Cn1nc(N2CCC(=O)NC2=O)c2ccc(CCCN3CCN(c4cccc(S(=O)(=O)N5CCC(Nc6ncc(C(F)(F)F)cn6)CC5)c4)CC3)cc21 [Example 235, 1-(1-methyl-6-(3-(4-(3-((4-((5-(trifluoromethyl)pyrimidin-2-yl)amino)piperidin-1-yl)sulfonyl)phenyl)piperazin-1-yl)propyl)-1H-indazol-3-yl)dihydropyrimidine-2,4(1H,3H)-dione]
1 to 100 | Cn1nc(N2CCC(=O)NC2=O)c2ccc(C3CCN(CC4CCN(c5cccc(S(=O)(=O)N6CCC(Nc7ncc(OC(F)F)cn7)CC6)c5)CC4)CC3)cc21 [Example 112, 1-(6-(1-((1-(3-((4-((5-(difluoromethoxy)-pyrimidin-2-yl)amino)piperidin-1-yl)sulfonyl)phenyl)piperidin-4-yl)methyl)piperidin-4-yl)-1-methyl-1H-indazol-3-yl)dihydropyrimidine-2,4(1H,3H)-dione]

From patent publication US20260167623A1 (NIKANG THERAPEUTICS, INC., priority 2022, published 2026)
